Consider 11 compounds from ChEMBL document CHEMBL4392856, “Synthesis of diphenoxyadamantane alkylamines with pharmacological interest” (Bioorg Med Chem Lett, 2019).

Converted amounts (≈) assume the structure as drawn.

Experiment [1] concerns Mycobacterium tuberculosis. As to the kind of experiment: Antimycobacterial activity against Mycobacterium tuberculosis H37Rv assessed as inhibition of parasite growth incubated for 6 days by REMA method. Type of experiment: functional. The note with it: 144 h.
In experiment [2] the test system is Mycobacterium tuberculosis. Briefly: Antimycobacterial activity against […] assessed as inhibition of parasite growth incubated for 6 days by REMA method. Type of experiment: functional.
Experiment [3] has as its system Mycobacterium tuberculosis. Briefly: Antimycobacterial activity against Mycobacterium tuberculosis assessed as inhibition of parasite growth at 1 ug/ml incubated for 6 days by REMA method relative to untreated control. Format: functional. The note with it: 144 h.
The next experiment deals with L6. As to the kind of experiment: Cytotoxic activity against rat L6 cells assessed as reduction in cell viability incubated for 6 days by Alamar blue assay. Type of experiment: cell-based. The note with it: L6, 144 h. A general note: The colour change of resazurin is a common sign of viable cells or microbes.
The subject of a further experiment is Trypanosoma brucei. Briefly: Antitrypanosomal activity against Trypanosoma brucei 427 bloodstream forms assessed as inhibition of parasite growth incubated for 48 hrs by Alamar blue assay. The note with it: Trypanosoma brucei, 427, 48 h. Format: functional, organism-based.

For `CN1CCN(CCOc2ccc(C3(c4ccc(OCCN5CCN(C)CC5)cc4)C4CC5CC(C4)CC3C5)cc2)CC1`, the MIC (as a rule, the lowest concentration that inhibits growth of the organism) in experiment [1] came to 4.59 µM (≈ 2.63 µg/mL). Besides, in experiment [2], the Imax stood at 100%. In addition, in experiment [3], the inhibition (usually the percentage by which the read-out fell short of the control) at 1 µg/mL is 0.04%. Besides, the IC50 – broadly, the concentration that inhibits the measured activity by half – in the experiment on L6 was found to be 330 nM. Besides, in the experiment with Trypanosoma brucei, the IC50 worked out at 51 nM and the concentration for an effect of 90% (IC90) (usually the concentration at which the effect reaches the 90% level) stood at 70 nM.

For the compound `CCCCCCNCC(O)COc1ccc(C23CC4CC(C2)CC(c2ccc(OCC(O)CNCCCCCC)cc2)(C4)C3)cc1` (stereo not given), the MIC in experiment [1] is 0.084 µM (≈ 0.0533 µg/mL). Besides, the Imax in experiment [2] worked out at 0%. Moreover, in experiment [3], the inhibition at 1 µg/mL is 0%. In addition, the IC50 with L6 is 450 nM. In the experiment with Trypanosoma brucei, the half-maximal inhibitory concentration (IC50) was 205 nM and the IC90 was 272 nM.

Regarding `CN(C)CC(O)COc1ccc(C23CC4CC(C2)CC(c2ccc(OCC(O)CN(C)C)cc2)(C4)C3)cc1` (stereo not given), in the experiment on L6, the IC50 stood at 290 nM. For the same compound, in the experiment on Trypanosoma brucei, the IC50 worked out at 171 nM and the IC90 came out at 235 nM.

On to `OC(COc1ccc(C23CC4CC(C2)CC(c2ccc(OCC(O)CN5CCCCC5)cc2)(C4)C3)cc1)CN1CCCCC1` (stereo not given), for which, in experiment [1], the MIC came to 10.4 µM (≈ 6.27 µg/mL). The Imax in experiment [2] was 99%. The inhibition at 1 µg/mL in experiment [3] stood at 0.17%. The IC50 with L6 was found to be 270 nM. Moreover, in the experiment with Trypanosoma brucei, the IC50 came to 250 nM and the IC90 came to 292 nM.

On to `CCCCNCC(O)COc1ccc(C23CC4CC(C2)CC(c2ccc(OCC(O)CNCCCC)cc2)(C4)C3)cc1` (stereo not given), for which the MIC in experiment [1] stood at 4.14 µM (≈ 2.4 µg/mL). For the same compound, in experiment [2], the Imax turned out to be 100%. Further, the inhibition at 1 µg/mL in experiment [3] worked out at 50%. For the same compound, the IC50 with L6 is 550 nM; in the experiment with Trypanosoma brucei it was 93 nM. In the experiment on Trypanosoma brucei, the IC90 is 110 nM.

`CN1CCN(CC(O)COc2ccc(C34CC5CC(C3)CC(c3ccc(OCC(O)CN6CCN(C)CC6)cc3)(C5)C4)cc2)CC1` (stereo not given): the MIC in experiment [1] is 20.5 µM (≈ 13 µg/mL). The Imax in experiment [2] was 95%. Besides, the inhibition at 1 µg/mL in experiment [3] was 5%. Besides, the IC50 in the experiment with L6 was 260 nM. Also, in the experiment on Trypanosoma brucei, the half-inhibitory concentration (IC50) amounted to 176 nM and the IC90 amounted to 207 nM.

Turning to `OCCN(CCO)CC(O)COc1ccc(C2(c3ccc(OCC(O)CN(CCO)CCO)cc3)C3CC4CC(C3)CC2C4)cc1` (stereo not given), in experiment [1], the MIC came to 24.3 µM (≈ 15.6 µg/mL).

With `CN1CCN(CC(O)COc2ccc(C3(c4ccc(OCC(O)CN5CCN(C)CC5)cc4)C4CC5CC(C4)CC3C5)cc2)CC1` (stereo not given), the MIC in experiment [1] is 8.5 µM (≈ 5.38 µg/mL). Moreover, the IC50 with L6 was 540 nM. Further, in the experiment with Trypanosoma brucei, the IC50 is 114 nM and the IC90 was 138 nM.

Turning to `CC[C@@H](CO)NCCN[C@@H](CC)CO` [ETHAMBUTOL], the MIC in experiment [1] was determined as 0.11 µM (≈ 0.0225 µg/mL). Moreover, in experiment [2], the Imax came to 0%. The inhibition at 1 µg/mL in experiment [3] turned out to be 0%.

As to `CSc1ccc(OCc2ncc([N+](=O)[O-])n2C)cc1` [FEXINIDAZOLE], the IC50 with Trypanosoma brucei was 1000 nM.

Take `CO[C@H]1/C=C/O[C@@]2(C)Oc3c(C)c(O)c4c(O)c(c(/C=N/N5CCN(C)CC5)c(O)c4c3C2=O)NC(=O)/C(C)=C\C=C\[C@H](C)[C@H](O)[C@@H](C)[C@@H](O)[C@@H](C)[C@H](OC(C)=O)[C@@H]1C` [RIFAMPIN]: the MIC in experiment [1] came out at 0.001 µM (≈ 0.000823 µg/mL). Moreover, the Imax in experiment [2] is given as 54%. For the same compound, the inhibition at 1 µg/mL in experiment [3] is 13%.
